Source: patent publication EP1409500B1, “ALKYLATED INOSITOLGLYCANS AND THEIR USES” (Rodaris Pharmaceuticals Limited, priority 2000, dated 2001)

Key:
[1] = tested on: PDH phosphatase; test: PDH phosphatase activation assay; format: biochemical; conditions: 100µM
Description: (§1) Methods for obtaining A-type and P-type mediators are set out in Caro et al, 1997, and in WO98/11116 and WO98/11117. Protocols for determining characteristic IPG biological activities such as PDH activation, PKA inhibition, acetylCoA activation, fructose-1,6-bis-phosphatase activity and lipogenesis are well known in the art, e.g. as described in Caro et al^[14].
(§2) The compounds of the invention can be tested for one or more the characteristic IPG-P and/or IPG-A activities mentioned above to determine whether they will be suitable for use a IPG mimetics or antagonists. Preferred assays measure the effect of the compounds on PDH phosphatase, PKA or lipogenesis. Protocols for these assays are provided in Caro et al ^[14]. The compounds can also be tested to determine whether they activate or inhibit other enzymes involved in insulin signalling mechanism, such as glucose-6-phosphatase.
In particular, preferred compounds having 1,6 linkages are good activators of PDH phosphatase activity.

[2] = tested on: PKA; test: PKA inhibition assay; format: biochemical
Description: as §1, §2

| PDH % activation [1] [%] | Compound | PKA % inhibition ([2]; 0.1µM) [%] | PKA % inhibition ([2]; 1µM) [%] | PKA % inhibition ([2]; 10µM) [%] |
| --- | --- | --- | --- | --- |
| 65 | CO[C@H]1[C@H](O)[C@@H](O)[C@@H](O[C@H]2O[C@H](CO)[C@@H](O)[C@H](O)[C@H]2N)[C@H](O)[C@@H]1O [RGL1024, O-(2-amino-2-deoxy-D-glucopyranosyl)-α(1,6)-D-3-O-methyl-chiro-inositol.] | 17 | 34 | 2 |
| 17 | CO[C@H]1[C@H](O)[C@@H](O)[C@@H](O[C@H]2O[C@H](CO)[C@H](O)[C@H](O)[C@H]2N)[C@H](O)[C@@H]1O [RGL1025, O-(2-amino-2deoxy-D-galactopyranosyl)-α(1,6)-D-3-O-methyl-chiro-inositol.] | 48 | -13 |  |
| 38 | CO[C@H]1[C@H](O)[C@@H](O)[C@@H](O[C@@H]2O[C@H](CO)[C@@H](O)[C@H](O)[C@H]2N)[C@H](O)[C@@H]1O [RGL1015, O-(2-amino-2-deoxy-D-glucopyranosyl)-β(1,6)-D-3-O-methyl-chiro-inositol.] | 14 | 15 |  |
